Publication PMC12084609, “Structural insights into small-molecule agonist recognition and activation of complement receptor C3aR” (The EMBO Journal, 2025)
Positions count from the first letter of the chain named. Where “and” joins values, the source holds several entries; their conditions need not be identical. Identical values can stand only once. Like-named read-outs stand apart in the source and are kept apart here.

Key:
Format in all cases: cell-based
C3aR = C3aR (Homo sapiens, UniProt Q16581); assay: Gi recruitment BRET assay (C3aR-eYFP / Gαi-Rluc8, HEK293T); conditions: for ΔBRET (ligand-vehicle): individual replicates
Protocol: HEK293T cells were seeded on 6-well plates (NEST) and transfected with pcDNA3.1 plasmids encoding C3aR-eYFP, Gαi-Rluc8, Gβ1, and Gγ2 with a ratio of 5:1:1:1. After 48 h, cells were harvested and resuspended with in PBS. Cells were treated with test ligand with various concentrations and seeded on 96-well white bottom plates (SPL). After 3 min incubation at 37 °C, coelenterazine h (Nanolight) was added with a final concentration of 10 μM. Luminescence and fluorescence were measured using a Tristar 2 LB 942 multimode reader (Berthold).

C3aR S26^1.35A = target: T1, C3aR S26^1.35A (Homo sapiens, UniProt Q16581, S26A); assay: GloSensor-based cAMP assay, C3aR mutant S26A
T1 construct: expressed in transfected cells; host or cells: HEK293T
T1 sequence (Q16581 1-482 S26A): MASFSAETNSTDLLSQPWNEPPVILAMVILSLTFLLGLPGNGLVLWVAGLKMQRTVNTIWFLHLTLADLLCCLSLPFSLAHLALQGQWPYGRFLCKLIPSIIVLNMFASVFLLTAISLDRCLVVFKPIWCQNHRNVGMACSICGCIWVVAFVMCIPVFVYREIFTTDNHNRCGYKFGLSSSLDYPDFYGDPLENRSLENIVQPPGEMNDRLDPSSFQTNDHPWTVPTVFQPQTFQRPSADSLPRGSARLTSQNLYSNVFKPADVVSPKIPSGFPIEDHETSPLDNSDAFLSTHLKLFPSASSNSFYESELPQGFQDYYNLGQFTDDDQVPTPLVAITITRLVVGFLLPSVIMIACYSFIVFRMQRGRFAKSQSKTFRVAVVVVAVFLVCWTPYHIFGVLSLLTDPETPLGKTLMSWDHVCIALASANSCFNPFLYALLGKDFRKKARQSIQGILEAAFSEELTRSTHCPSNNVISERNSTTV
Protocol: (§1) HEK293T cells were seeded on 6-well plates (NEST) and transfected with pGlosensor™-22F plasmids (Promega) and pcDNA3.1 plasmids encoding C3aR or its mutants an with N-terminal FLAG tag. After 48 h, cells were detached with Accutase solution (Sigma-Aldrich) and washed with PBS, and resuspended in assay buffer (CO2-independent medium with 0.5 mg mL^−1D-luciferin). 100,000–200,000 cells were seeded on 96-well white bottom plates (SPL) and incubated at 37 °C for 45 min followed by 45 min incubation at room temperature. After 90 min of incubation, basal luminescence signals were recorded. In total, 25 μl of test ligand with various concentrations and 1 μM Forskolin (Sigma-Aldrich) were treated to the cells and luminescence signals were measured by Tristar 2 LB 942 multimode reader (Berthold). […] Relative luminescence unit (%) was calculated with the signal of wells treated with vehicle as 0% and the signal of wells treated with 1 μM Forskolin as 100% (DiRaddo et al, [2014]). Nonlinear regression was performed using a three-parameter logistic equation.

C3aR P99^3.29A = target: T2, C3aR P99^3.29A (Homo sapiens, UniProt Q16581, P99A); assay: GloSensor-based cAMP assay, C3aR mutant P99A
T2 construct: expressed in transfected cells; host or cells: HEK293T
T2 sequence (Q16581 1-482 P99A): T1 sequence (Q16581 1-482 S26A) with A26S, P99A
Protocol: as §1

C3aR M106^3.36A = target: T3, C3aR M106^3.36A (Homo sapiens, UniProt Q16581, M106A); assay: GloSensor-based cAMP assay, C3aR mutant M106A
T3 construct: expressed in transfected cells; host or cells: HEK293T
T3 sequence (Q16581 1-482 M106A): T1 sequence (Q16581 1-482 S26A) with A26S, M106A
Protocol: as §1

[1] = Dunnett's multiple comparisons test, WT minus mutant

Sequence of C3aR (Q16581 whole entry): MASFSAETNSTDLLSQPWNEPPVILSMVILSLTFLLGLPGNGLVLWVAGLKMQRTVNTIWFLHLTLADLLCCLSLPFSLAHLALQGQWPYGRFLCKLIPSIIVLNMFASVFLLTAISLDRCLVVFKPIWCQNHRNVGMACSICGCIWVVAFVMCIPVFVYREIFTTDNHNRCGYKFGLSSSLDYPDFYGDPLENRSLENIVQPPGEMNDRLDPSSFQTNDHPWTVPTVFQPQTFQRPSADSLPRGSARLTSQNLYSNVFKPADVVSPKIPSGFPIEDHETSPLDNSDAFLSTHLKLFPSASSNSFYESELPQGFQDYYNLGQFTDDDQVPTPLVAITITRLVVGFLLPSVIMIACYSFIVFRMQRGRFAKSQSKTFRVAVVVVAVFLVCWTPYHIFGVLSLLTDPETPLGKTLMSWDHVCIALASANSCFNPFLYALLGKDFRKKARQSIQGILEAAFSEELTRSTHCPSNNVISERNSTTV
Sequence of C3aR (P63096 2-354 partner limits assumed): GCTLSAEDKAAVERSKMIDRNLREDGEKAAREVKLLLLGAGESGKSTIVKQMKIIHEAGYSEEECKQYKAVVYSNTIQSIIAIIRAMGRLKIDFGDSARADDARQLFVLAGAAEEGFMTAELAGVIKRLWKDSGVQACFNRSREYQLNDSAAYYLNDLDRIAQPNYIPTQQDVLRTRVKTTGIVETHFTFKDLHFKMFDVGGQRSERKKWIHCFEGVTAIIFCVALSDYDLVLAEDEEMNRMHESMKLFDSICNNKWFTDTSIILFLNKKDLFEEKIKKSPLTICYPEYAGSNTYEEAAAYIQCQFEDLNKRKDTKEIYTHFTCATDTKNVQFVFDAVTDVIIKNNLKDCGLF
Sequence of C3aR (P62873 2-340 partner limits assumed): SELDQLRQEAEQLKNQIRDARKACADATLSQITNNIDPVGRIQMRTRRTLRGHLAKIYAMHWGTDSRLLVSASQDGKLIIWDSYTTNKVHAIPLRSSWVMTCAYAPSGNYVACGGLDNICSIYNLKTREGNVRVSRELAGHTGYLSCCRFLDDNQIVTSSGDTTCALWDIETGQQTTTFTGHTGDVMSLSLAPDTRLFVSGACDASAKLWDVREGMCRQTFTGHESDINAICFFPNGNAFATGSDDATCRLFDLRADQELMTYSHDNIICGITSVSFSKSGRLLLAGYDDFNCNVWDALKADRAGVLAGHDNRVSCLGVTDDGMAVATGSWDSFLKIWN
Sequence of C3aR (P59768 2-68 partner limits assumed): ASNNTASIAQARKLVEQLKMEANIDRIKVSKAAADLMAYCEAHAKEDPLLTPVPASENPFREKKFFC

Compound: Cc1cc(C(c2ccc(Cl)cc2)c2ccc(Cl)cc2)sc1C(=O)N[C@@H](CCCNC(=N)N)C(=O)O [JR14a, reference compound]
- ΔBRET (ligand-vehicle) (C3aR; Log[ligand (M)] -6): 0.012 and 0.008 and 0.015 and 0.018
- ΔBRET (ligand-vehicle) (C3aR; Log[ligand (M)] -7): 0.005 and 0.015 and 0.017
- ΔBRET (ligand-vehicle) (C3aR; Log[ligand (M)] -8): 0.004 and 0.00244 and 0.012 and 0.018
- ΔBRET (ligand-vehicle) (C3aR; Log[ligand (M)] -9): 0.002 and -0.000881 and 0.00951 and 0.012
- ΔBRET (ligand-vehicle) (C3aR; Log[ligand (M)] -10): 0.00084 and -0.0022 and 0.006 and 0.009
- ΔBRET (ligand-vehicle) (C3aR; Log[ligand (M)] -11): 0.001 and -0.004 and 0.005 and 0.010
- ΔBRET (ligand-vehicle) (C3aR; Log[ligand (M)] -12): -6.28e-5 and 0.00465 and 0.004
- EC50 (C3aR; dose-dependent increase in BRET ratio, read-out: EC50): 5 nM
- EC50 (C3aR; pEC50 ± SEM, Gi recruitment to C3aR, Appendix Table S1A): 4.57 nM
- Span Value (C3aR; span of ΔBRET curve, Figure EV1A numerical data): 0.010
- Mean Diff. of pIC50, WT vs. S26A (C3aR S26^1.35A; [1]): -0.137
- IC50 (C3aR S26^1.35A; IC50, S26^1.35A, dose-response plot): 5.58 nM
- remaining activity at 1 µM (C3aR S26^1.35A; S26A, Log[JR14a (M)] -6, single replicates, read-out: cAMP response (% Forskolin)): 7.75%
- remaining activity at 0.1 µM (C3aR S26^1.35A; S26A, Log[JR14a (M)] -7, single replicates, read-out: cAMP response (% Forskolin)): 8.58%
- remaining activity at 0.0001 µM (C3aR S26^1.35A; S26A, Log[JR14a (M)] -10, single replicates, read-out: cAMP response (% Forskolin)): 91.9%
- remaining activity at 10 pM (C3aR S26^1.35A; S26A, Log[JR14a (M)] -11, single replicates, read-out: cAMP response (% Forskolin)): 96.7%
- ΔpIC50 ± SE of Diff. (C3aR S26^1.35A; S26^1.35A relative to WT C3aR): 0.14 ± 0.07
- IC50 (C3aR S26^1.35A; pIC50 (Replicate), S26^1.35A, individual replicates): 1.62 nM and 4.57 nM and 7.41 nM
- IC50 (C3aR S26^1.35A; pIC50 ± SEM (Mean), S26^1.35A, mean of independent experiments): 3.8 nM
- Mean Diff. of pIC50, WT vs. P99A (C3aR P99^3.29A; [1]): -0.103
- IC50 (C3aR P99^3.29A; IC50, P99^3.29A, dose-response plot): 4.08 nM
- remaining activity at 1 µM (C3aR P99^3.29A; P99A, Log[JR14a (M)] -6, single replicates, read-out: cAMP response (% Forskolin)): 8.38%
- remaining activity at 0.1 µM (C3aR P99^3.29A; P99A, Log[JR14a (M)] -7, single replicates, read-out: cAMP response (% Forskolin)): 9.9%
- remaining activity at 0.001 µM (C3aR P99^3.29A; P99A, Log[JR14a (M)] -9, single replicates, read-out: cAMP response (% Forskolin)): 77.4%
- remaining activity at 0.0001 µM (C3aR P99^3.29A; P99A, Log[JR14a (M)] -10, single replicates, read-out: cAMP response (% Forskolin)): 102%
- remaining activity at 10 pM (C3aR P99^3.29A; P99A, Log[JR14a (M)] -11, single replicates, read-out: cAMP response (% Forskolin)): 104%
- ΔpIC50 ± SE of Diff. (C3aR P99^3.29A; P99^3.29A relative to WT C3aR): 0.10 ± 0.06
- decrease in IC50 values vs WT (C3aR P99^3.29A; P99^3.29 to Ala, relatively mild effect on downstream signaling): < 10 fold
- IC50 (C3aR P99^3.29A; pIC50 (Replicate), P99^3.29A, individual replicates): 4.9 nM and 5.25 nM and 2.69 nM
- Mean Diff. of pIC50, WT vs. M106A (C3aR M106^3.36A; [1]): -0.207
- IC50 (C3aR M106^3.36A; IC50, M106^3.36A, dose-response plot): 3.24 nM
- ΔpIC50 ± SE of Diff. (C3aR M106^3.36A; M106^3.36A relative to WT C3aR): 0.21 ± 0.09
- IC50 (C3aR M106^3.36A; pIC50 (Replicate), M106^3.36A, individual replicates): 3.63 nM and 7.41 nM and 1.29 nM
